Test results reported in patent publication US20190175571A1, “IMIDAZOLE DERIVATIVES AND THEIR USE IN THE TREATMENT OF AUTOIMMUNE OR INFLAMMATORY DISEASES OR CANCERS” (GLAXOSMITHKLINE INTELLECTUAL PROPERTY (NO.2) LIMITED, priority 2016, published 2019).

How the values were obtained:
BRDT BD2 = target: T1, BRDT BD2 (Homo sapiens, UniProt Q58F21, Y66A); test: TR-FRET competition assay, BRDT BD2; assay type: binding; details: TR-FRET competition with Reference Compound X; range stated for the listed group; read-out: mean pIC50 in the BRDT BD2 assay (converted)
T1 construct: BRDT (1-397) (Y66A) and (Y309A); made in house; host or cells: E. coli (pET28a)

BRD2 BD1 = target: T2, BRD2 BD1 (Homo sapiens, UniProt P25440, Y386A); test: TR-FRET competition assay, BRD2 BD1; assay type: binding; details: TR-FRET competition with Reference Compound X; range stated for the listed group; read-out: mean pIC50 in the BRD2 BD1 assay (converted)
T2 construct: BRD2 (1-473) (Y113A) and (Y386A); made in house; host or cells: E. coli (pET15b)
T2 sequence (P25440 1-473 Y386A): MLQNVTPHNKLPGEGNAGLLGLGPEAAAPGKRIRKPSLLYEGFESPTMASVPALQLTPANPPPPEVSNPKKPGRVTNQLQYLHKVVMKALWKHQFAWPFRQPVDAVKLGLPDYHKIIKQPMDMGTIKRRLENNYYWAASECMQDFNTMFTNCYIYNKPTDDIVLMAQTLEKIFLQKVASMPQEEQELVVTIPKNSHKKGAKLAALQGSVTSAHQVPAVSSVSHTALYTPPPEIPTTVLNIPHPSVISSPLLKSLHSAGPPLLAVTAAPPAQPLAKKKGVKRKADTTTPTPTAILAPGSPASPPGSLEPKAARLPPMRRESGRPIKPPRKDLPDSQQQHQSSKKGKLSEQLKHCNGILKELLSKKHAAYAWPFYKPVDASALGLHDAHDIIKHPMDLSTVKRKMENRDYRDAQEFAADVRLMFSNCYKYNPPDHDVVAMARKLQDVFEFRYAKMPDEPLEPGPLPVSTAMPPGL

BRDT BD1 = target: T3, BRDT BD1 (Homo sapiens, UniProt Q58F21, Y309A); test: TR-FRET competition assay, BRDT BD1; assay type: binding; details: TR-FRET competition with Reference Compound X; range stated for the listed group; read-out: mean pIC50 in the BRDT BD1 assay (converted)
T3 construct: BRDT (1-397) (Y66A) and (Y309A); made in house; host or cells: E. coli (pET28a)

BRD2 BD2 = target: T4, BRD2 BD2 (Homo sapiens, UniProt P25440, Y113A); test: TR-FRET competition assay, BRD2 BD2; assay type: binding; details: TR-FRET competition with Reference Compound X; range stated for the listed group; read-out: mean pIC50 in the BRD2 BD2 assay (converted)
T4 construct: BRD2 (1-473) (Y113A) and (Y386A); made in house; host or cells: E. coli (pET15b)
T4 sequence (P25440 1-473 Y113A): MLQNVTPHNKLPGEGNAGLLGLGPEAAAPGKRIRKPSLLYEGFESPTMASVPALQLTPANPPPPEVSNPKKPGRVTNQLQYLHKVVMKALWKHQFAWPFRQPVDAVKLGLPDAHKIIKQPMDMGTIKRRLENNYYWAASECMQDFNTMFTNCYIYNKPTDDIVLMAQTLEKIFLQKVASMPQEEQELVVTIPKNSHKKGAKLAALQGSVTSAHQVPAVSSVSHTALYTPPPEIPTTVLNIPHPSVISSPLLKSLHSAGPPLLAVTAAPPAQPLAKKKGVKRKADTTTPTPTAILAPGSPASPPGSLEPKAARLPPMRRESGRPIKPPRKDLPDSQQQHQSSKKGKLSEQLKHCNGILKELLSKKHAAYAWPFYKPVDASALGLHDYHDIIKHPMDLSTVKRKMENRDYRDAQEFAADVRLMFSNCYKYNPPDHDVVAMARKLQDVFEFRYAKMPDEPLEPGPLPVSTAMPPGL

BRD3 BD1 = target: T5, BRD3 BD1 (Homo sapiens, UniProt Q15059, Y348A); test: TR-FRET competition assay, BRD3 BD1; assay type: binding; details: TR-FRET competition with Reference Compound X; range stated for the listed group; read-out: mean pIC50 in the BRD3 BD1 assay (converted)
T5 construct: BRD3 (1-435) (Y73A) and (Y348A); made in house; host or cells: E. coli (pET15b)
T5 sequence (Q15059 1-435 Y348A): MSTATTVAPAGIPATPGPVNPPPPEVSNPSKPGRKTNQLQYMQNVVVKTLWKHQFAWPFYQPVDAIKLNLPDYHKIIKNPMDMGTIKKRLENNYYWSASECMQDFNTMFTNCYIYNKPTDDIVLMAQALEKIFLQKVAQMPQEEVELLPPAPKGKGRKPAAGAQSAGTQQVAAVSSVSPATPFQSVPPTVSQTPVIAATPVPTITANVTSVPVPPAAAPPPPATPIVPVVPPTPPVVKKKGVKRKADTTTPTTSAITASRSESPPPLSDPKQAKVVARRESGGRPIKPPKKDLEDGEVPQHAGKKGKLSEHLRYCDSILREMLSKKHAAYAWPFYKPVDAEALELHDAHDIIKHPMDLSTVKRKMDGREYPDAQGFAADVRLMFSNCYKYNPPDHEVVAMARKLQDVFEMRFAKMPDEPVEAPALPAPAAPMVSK

BRD3 BD2 = target: T6, BRD3 BD2 (Homo sapiens, UniProt Q15059, Y73A); test: TR-FRET competition assay, BRD3 BD2; assay type: binding; details: TR-FRET competition with Reference Compound X; range stated for the listed group; read-out: mean pIC50 in the BRD3 BD2 assay (converted)
T6 construct: BRD3 (1-435) (Y73A) and (Y348A); made in house; host or cells: E. coli (pET15b)
T6 sequence (Q15059 1-435 Y73A): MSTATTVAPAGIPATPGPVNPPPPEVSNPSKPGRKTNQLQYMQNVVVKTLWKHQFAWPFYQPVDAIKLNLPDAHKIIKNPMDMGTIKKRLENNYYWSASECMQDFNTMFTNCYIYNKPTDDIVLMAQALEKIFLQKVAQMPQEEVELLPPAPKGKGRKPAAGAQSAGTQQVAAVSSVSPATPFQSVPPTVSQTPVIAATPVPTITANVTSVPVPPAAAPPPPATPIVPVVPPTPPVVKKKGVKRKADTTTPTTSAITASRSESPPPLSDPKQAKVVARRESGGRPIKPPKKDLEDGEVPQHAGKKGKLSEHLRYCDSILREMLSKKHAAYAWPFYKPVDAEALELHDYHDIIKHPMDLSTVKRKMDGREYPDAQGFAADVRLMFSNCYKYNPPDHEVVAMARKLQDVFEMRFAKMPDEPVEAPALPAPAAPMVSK

MCP-1 production = test: LPS induced MCP-1 production from human whole blood; assay type: cell-based; details: human whole blood, LPS 200 ng/mL, 18-24 hours; read-out: mean pIC50, LPS induced MCP-1 production (converted)
BRD4 BD2 = target: T7, BRD4 BD2 (Homo sapiens, UniProt O60885, Y97A); test: TR-FRET competition assay, BRD4 BD2; assay type: binding; details: TR-FRET competition with Reference Compound X, single mutant tandem protein; read-out: mean pIC50 in the BRD4 BD2 assay (converted)
T7 construct: BRD4 (1-477) (Y97A) and (Y390A); made in house; host or cells: E. coli (pET15b)

BRD4 BD1 = target: T8, BRD4 BD1 (Homo sapiens, UniProt O60885, Y390A); test: TR-FRET competition assay, BRD4 BD1; assay type: binding; details: TR-FRET competition with Reference Compound X, single mutant tandem protein; read-out: mean pIC50 in the BRD4 BD1 assay (converted)
T8 construct: BRD4 (1-477) (Y97A) and (Y390A); made in house; host or cells: E. coli (pET15b)

[1] = tested on: TNP-KLH induced Immunoglobulin-1 (IgG1) production; test: TNP-KLH induced IgG1 production mouse assay; assay type: in vivo; details: for Day 14 IgG1: male CD1 mice
[2] = tested on: double mutant tandem BET proteins (BRD2, BRD3, BRD4, BRDT); test: Fluorescence Polarisation binding of Reference Compound X to mutant tandem BET proteins; design: species or system human

Work on `Cc1cc(-c2nccn2CC2CCCCO2)cn(C)c1=O` (racemic) [Example 7, rac-1,3-dimethyl-5-(1-((tetrahydro-2H-pyran-2-yl)methyl)-1H-imidazol-2-yl)pyridin-2(1H)-one] yielded an IC50 (BRDT BD2) of 2000 to 25100 nM, an IC50 (BRD2 BD1) of 12.6 to 7940 nM and an IC50 (BRDT BD1) of 39.8 to 12600 nM. It also gave an IC50 (BRD2 BD2) of 1000 to 50100 nM.

`CC(=O)N1CCCC(Cn2cc(Cl)nc2-c2cc(C)c(=O)n(C)c2)C1` (single isomer, unassigned) [Example 25, 5-(1-((1-acetylpiperidin-3-yl)methyl)-4-chloro-1H-imidazol-2-yl)-1,3-dimethylpyridin-2(1H)-one] showed an IC50 (BRD3 BD1) of 20 to 79.4 nM, an IC50 (BRDT BD2) of 2000 to 25100 nM and an IC50 (BRD3 BD2) of 251 to 1000 nM. The IC50 (BRD2 BD1) was 12.6 to 7940 nM, the IC50 (BRDT BD1) was 39.8 to 12600 nM and the IC50 (BRD2 BD2) was 1000 to 50100 nM.

In the case of `Cc1cc(-c2nc(Cl)cn2CC2CCCOC2)cn(C)c1=O` (single isomer, unassigned) [Example 29, 5-(4-chloro-1-((tetrahydro-2H-pyran-3-yl)methyl)-1H-imidazol-2-yl)-1,3-dimethylpyridin-2(1H)-one], the IC50 (BRD3 BD1) is reported as 20 to 79.4 nM, the IC50 (BRDT BD2) is reported as 2000 to 25100 nM and the IC50 (BRD3 BD2) is reported as 251 to 1000 nM. It also gave an IC50 (BRD2 BD1) of 12.6 to 7940 nM, an IC50 (BRDT BD1) of 39.8 to 12600 nM and an IC50 (BRD2 BD2) of 1000 to 50100 nM.

`Cc1cc(-c2ncc[nH]2)cn(C)c1=O` [Example 1, 5-(1H-imidazol-2-yl)-1,3-dimethylpyridin-2(1H)-one] was tested, and the IC50 (BRDT BD2) was greater than 50100 nM, the IC50 (BRD2 BD1) was 12.6 to 7940 nM and the IC50 (BRDT BD1) was 39.8 to 12600 nM. For the same molecule, the IC50 (BRD2 BD2) was 1000 to 50100 nM.

For `Cc1cc(-c2nccn2CC2CC2)cn(C)c1=O` [Example 3, 5-(1-(cyclopropylmethyl)-1H-imidazol-2-yl)-1,3-dimethylpyridin-2(1H)-one], the IC50 (BRDT BD2) was 2000 to 25100 nM, the IC50 (BRD2 BD1) was 12.6 to 7940 nM and the IC50 (BRDT BD1) was 39.8 to 12600 nM. The IC50 (BRD2 BD2) was 1000 to 50100 nM.

`Cc1cc(-c2nccn2CC(C)C)cn(C)c1=O` [Example 5, 5-(1-isobutyl-1H-imidazol-2-yl)-1,3-dimethylpyridin-2(1H)-one] showed an IC50 (BRDT BD2) of 2000 to 25100 nM, an IC50 (BRD2 BD1) of 12.6 to 7940 nM and an IC50 (BRDT BD1) of 39.8 to 12600 nM. It also gave an IC50 (BRD2 BD2) of 1000 to 50100 nM.

Molecule `Cc1cc(-c2nccn2CC2CCOCC2)cn(C)c1=O` [Example 6, 1,3-dimethyl-5-(1-((tetrahydro-2H-pyran-4-yl)methyl)-1H-imidazol-2-yl)pyridin-2(1H)-one] has an IC50 (BRDT BD2) of 2000 to 25100 nM, an IC50 (BRD2 BD1) of 12.6 to 7940 nM and an IC50 (BRDT BD1) of 39.8 to 12600 nM. For the same molecule, the IC50 (BRD2 BD2) was 1000 to 50100 nM.

`COCC(COC)n1cc(Cl)nc1-c1cc(C)c(=O)n(C)c1` [Example 22, 5-(4-chloro-1-(1,3-dimethoxypropan-2-yl)-1H-imidazol-2-yl)-1,3-dimethylpyridin-2(1H)-one] was tested, and the IC50 (MCP-1 production) was 100 nM, the IC50 (BRD4 BD2) was 2000 nM and the IC50 (BRD4 BD1) was 50.1 nM.

`Cc1cc(-c2nc(Cl)cn2CC2CCOCC2)cn(C)c1=O` [Example 30, 5-(4-chloro-1-((tetrahydro-2H-pyran-4-yl)methyl)-1H-imidazol-2-yl)-1,3-dimethylpyridin-2(1H)-one] was tested, and the IC50 (BRD3 BD1) was 20 to 79.4 nM, the “% reduction in IgG1 from vehicle” value ([1]; day 14, 1.5 mg/kg BID oral) was 0% and the “% reduction in IgG1 from vehicle” value ([1]; day 14, 5.0 mg/kg BID oral, ***P<0.01) was 86*** %. The “% reduction in IgG1 from vehicle” value ([1]; day 14, 15 mg/kg BID oral, ***P<0.01) was 99*** %, the “Day 14 IgG1” value ([1]; 1.5 mg/kg BID oral, 14 days) was 5.01 ± 3.30 µg/mL and the “Day 14 IgG1” value ([1]; 5.0 mg/kg BID oral, 14 days) was 0.85 ± 1.18 µg/mL. The “Day 14 IgG1” value ([1]; 15 mg/kg BID oral, 14 days) was 0.03 ± 0.03 µg/mL and the “adverse side effects during in life phase” value ([1]; male CD1 mice, 1.5, 5 or 15 mg/kg BID oral, 14 days) was “No adverse side effects were observed”.

`Cc1cc(-c2nc(C(=O)O)cn2CC2CCOCC2)cn(C)c1=O` [Example 35, 2-(1,5-dimethyl-6-oxo-1,6-dihydropyridin-3-yl)-1-((tetrahydro-2H-pyran-4-yl)methyl)-1H-imidazole-4-carboxylic acid] showed an IC50 (MCP-1 production) greater than 20000 nM.

In the case of `COc1ccc2c(c1)C(c1ccc(Cl)cc1)=N[C@@H](CC(=O)NCCCCCNC(=O)CCCCCC1(C)/C(=C/C=C/C=C/C3=[N+](CCCCS(=O)(=O)O)c4ccc(S(=O)(=O)O)cc4C3(C)C)N(CCCCS(=O)(=O)[O-])c3ccc(S(=O)(=O)O)cc31)c1nnc(C)n1-2` (stereo partly drawn) [Reference Compound X], the “reduction in Kd versus non mutated, wild type tandem BET proteins” value [2] is reported as greater than 1000 fold.
